From patent publication US12612360B2 (Sanofi, priority 2020, dated 2026) come the findings set out here.

In this assay the target is T1, ERα (Homo sapiens, UniProt P03372).
T1 construct: host or cells: MCF7
T1 sequence (P03372 1-595): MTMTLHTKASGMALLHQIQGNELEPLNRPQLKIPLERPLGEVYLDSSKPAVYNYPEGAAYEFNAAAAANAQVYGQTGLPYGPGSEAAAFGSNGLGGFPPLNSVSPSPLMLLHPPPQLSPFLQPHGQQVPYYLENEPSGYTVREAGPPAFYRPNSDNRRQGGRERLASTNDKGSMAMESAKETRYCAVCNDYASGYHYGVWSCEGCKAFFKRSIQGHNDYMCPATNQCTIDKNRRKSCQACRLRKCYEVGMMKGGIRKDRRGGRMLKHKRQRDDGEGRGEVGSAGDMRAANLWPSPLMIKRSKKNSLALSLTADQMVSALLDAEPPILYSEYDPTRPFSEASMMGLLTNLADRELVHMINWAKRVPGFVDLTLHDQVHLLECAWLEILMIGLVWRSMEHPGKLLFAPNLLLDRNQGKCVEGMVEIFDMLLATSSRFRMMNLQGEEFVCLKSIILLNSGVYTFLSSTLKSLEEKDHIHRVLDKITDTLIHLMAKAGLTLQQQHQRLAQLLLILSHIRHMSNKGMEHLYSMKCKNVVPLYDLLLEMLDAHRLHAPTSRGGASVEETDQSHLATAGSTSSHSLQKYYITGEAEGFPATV
In words: Estrogen receptor degradation activity: breast cancer cell ERα in cell western assay (MCF7 cells). Format: cell-based. The settings on record: for % Degradation At 0.3 μM: 4 hours, relative to fulvestrant 0.1 μM positive control; for DC50: 4 hours post compound addition, concentration which degrades 50% of the estrogen receptor, read-out: Degradation IC50. In short, it runs like this: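 In-cell western readout: ERα immunofluorescence (Alexa 488) normalised to DNA signal (Syto-64) after formalin fixation. Compounds dosed for 4 h on MCF7 cells in stripped-serum, phenol-red-free medium over nine 1:5 steps, 0.3 to […] final; fulvestrant 0.1 μM control. IC50 in nM for 50% ERα degradation.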

The structures appear in SMILES notation.

For `O=C(O)c1ccc2c(c1)CCCC([C@H]1[C@@H]3CCCC[C@@H]31)=C2c1ccc(C=C2CN(CCCF)C2)cc1` [Example 174, 84(1R,6S,70-bicyclo[4.1.0]heptan-7-yl)-9-(4-((1-(3-fluoropropyl)azetidin-3-ylidene)methyl)phenyl)-6,7-dihydro-5H-benzo[7]annulene-3-carboxylic acid], the “% Degradation At 0.3 μM” value is 86% and the DC50 is 2.6 nM.
On to `O=C(O)c1ccc2c(c1)CCCC(c1cccc(Cl)c1C(F)(F)F)=C2c1ccc(C=C2CN(CCC(F)F)C2)cc1` [Example 13, 8-(3-chloro-2-(trifluoromethyl)phenyl)-9-(4-((1-(3,3-difluoropropyl)azetidin-3-ylidene)methyl)phenyl)-6,7-dihydro-5H-benzo[7]annulene-3-carboxylic acid], for which the “% Degradation At 0.3 μM” value came out at 89% and the DC50 came out at 0.5 nM.
With `Cc1c(C2=C(c3ccc(C=C4CN(CCCF)C4)cc3)c3ccc(C(=O)O)cc3CCC2)ccc(F)c1F` [Example 29, 8-(3,4-difluoro-2-methylphenyl)-9-(4-((1-(3-fluoropropyl)azetidin-3-ylidene)methyl)phenyl)-6,7-dihydro-5H-benzo[7]annulene-3-carboxylic acid], the “% Degradation At 0.3 μM” value was determined as 96% and the DC50 was 0.3 nM.
`Cc1cc(C=C2CN(CCCF)C2)ccc1C1=C(c2ccc(Cl)cc2Cl)CCCc2cc(C(=O)O)ccc21.Cl` [Example 93, 8-(2,4-dichlorophenyl)-9-(4-((1-(3-fluoropropyl)azetidin-3-ylidene)methyl)-2-methylphenyl)-6,7-dihydro-5H-benzo[7]annulene-3-carboxylic acid hydrochloride]: the “% Degradation At 0.3 μM” value is 97% and the DC50 is 0.6 nM.
`Cc1cc(C2=C(c3ccc(Cl)cc3Cl)CCCc3cc(C(=O)O)ccc32)cc(C)c1C=C1CN(CCCF)C1.Cl` [Example 104, 8-(2,4-dichlorophenyl)-9-(4-((1-(3-fluoropropyl)azetidin-3-ylidene)methyl)-3,5-dimethylphenyl)-6,7-dihydro-5H-benzo[7]annulene-3-carboxylic acid hydrochloride]: the “% Degradation At 0.3 μM” value is on record as 79% and the DC50 amounted to 4.9 nM.
As for `O=C(O)c1ccc2c(c1)CCCC(Cc1ccccc1)=C2c1ccc(C=C2CN(CCCF)C2)cc1` [Example 167, 8-benzyl-9-(4-((1-(3-fluoropropyl)azetidin-3-ylidene)methyl)phenyl)-6,7-dihydro-acid], the “% Degradation At 0.3 μM” value was 89% and the DC50 was found to be 1.1 nM.
For the molecule `Cc1cc(C=C2CN(CCCF)C2)cc(F)c1C1=C(c2ccc(Cl)cc2Cl)CCCc2cc(C(=O)O)ccc21.Cl` [Example 66, 8-(2,4-dichlorophenyl)-9-(2-fluoro-4-((1-(3-fluoropropyl)azetidin-3-ylidene)methyl)-6-methylphenyl)-6,7-dihydro-5H-benzo[7]annulene-3-carboxylic acid hydrochloride], the “% Degradation At 0.3 μM” value was 98% and the DC50 worked out at 0.4 nM.
In the case of `O=C(O)c1ccc2c(c1)CCCC(c1ccc(Cl)cc1C(F)(F)F)=C2c1ccc(C=C2CN(CCCF)C2)cc1` [Example 37, 8-(4-chloro-2-(trifluoromethyl)phenyl)-9-(4-((1-(3-fluoropropyl)azetidin-3-ylidene)methyl)phenyl)-6,7-dihydro-5H-benzo[7]annulene-3-carboxylic acid], the “% Degradation At 0.3 μM” value worked out at 87% and the DC50 came out at 0.4 nM.
For the molecule `Cl.O=C(O)c1ccc2c(c1)CCC(c1ccc(Cl)cc1Cl)=C2c1ccc(C=C2CN(CCCF)C2)cc1` [Example 106, 6-(2,4-dichlorophenyl)-5-(4-((1-(3-fluoropropyl)azetidin-3-ylidene)methyl)phenyl)-7,8-dihydronaphthalene-2-carboxylic acid hydrochloride], the “% Degradation At 0.3 μM” value stood at 93% and the DC50 was found to be 1 nM.
In the case of `Cc1cc(F)ccc1C1=C(c2ccc(C=C3CN(CCC(F)F)C3)cc2)c2ccc(C(=O)O)cc2CCC1` [Example 19, 9-(4-((1-(3,3-difluoropropyl)azetidin-3-ylidene)methyl)phenyl)-8-(4-fluoro-2-methylphenyl)-6,7-dihydro-5H-benzo[7]annulene-3-carboxylic acid], the “% Degradation At 0.3 μM” value came to 93% and the DC50 is 0.2 nM.
Take `Cc1cc(F)ccc1C1=C(c2ccc(C=C3CN(CCCF)C3)c(C(F)(F)F)c2)c2ccc(C(=O)O)cc2CCC1` [Example 157, 8-(4-fluoro-2-methylphenyl)-9-(4-((1-(3-fluoropropyl)azetidin-3-ylidene)methyl)-3-(trifluoromethyl)phenyl)-6,7-dihydro-5H-benzo[7]annulene-3-carboxylic acid]: the “% Degradation At 0.3 μM” value is on record as 88% and the DC50 turned out to be 3.1 nM.
For `O=C(O)c1ccc2c(c1)CCCC(c1cc(C(F)(F)F)ccc1Cl)=C2c1ccc(C=C2CN(CCCF)C2)cc1` [Example 140, 8-(2-chloro-5-(trifluoromethyl)phenyl)-9-(4-((1-(3-fluoropropyl)azetidin-3-ylidene)methyl)phenyl)-6,7-dihydro-5H-benzo[7]annulene-3-carboxylic acid] the same measures were 92% and 0.5 nM.
As to `Cc1cccc(C2=C(c3ccc(C=C4CN(CCC(F)F)C4)cc3)c3ccc(C(=O)O)cc3CCC2)c1Cl` [Example 131, 8-(2-chloro-3-methylphenyl)-9-(4-((1-(3,3-difluoropropyl)azetidin-3-ylidene)methyl)phenyl)-6,7-dihydro-5H-benzo[7]annulene-3-carboxylic acid], the “% Degradation At 0.3 μM” value amounted to 95% and the DC50 amounted to 1.1 nM.
Turning to `O=C(O)c1ccc2c(c1)CCCC(c1ccc(C(F)(F)F)c(C(F)(F)F)c1)=C2c1ccc(C=C2CN(CCCF)C2)cc1` [Example 146, 8-(3,4-bis(trifluoromethyl)phenyl)-9-(4-((1-(3-fluoropropyl)azetidin-3-ylidene)methyl)phenyl)-6,7-dihydro-5H-benzo[7]annulene-3-carboxylic acid], the “% Degradation At 0.3 μM” value is on record as 88% and the DC50 is 1.4 nM.
In the case of `O=C(O)c1ccc2c(c1)CCCC(c1cccc(C(F)(F)F)c1Cl)=C2c1ccc(C=C2CN(CCC(F)F)C2)cc1` [Example 133, 8-(2-chloro-3-(trifluoromethyl)phenyl)-9-(4-((1-(3,3-difluoropropyl)azetidin-3-ylidene)methyl)phenyl)-6,7-dihydro-5H-benzo[7]annulene-3-carboxylic acid], the “% Degradation At 0.3 μM” value is listed as 92% and the DC50 is 1 nM.
In the case of `Cc1cccc(C2=C(c3ccc(C=C4CN(CCCF)C4)cc3)c3ccc(C(=O)O)cc3CCC2)c1F` [Example 48, 8-(2-fluoro-3-methylphenyl)-9-(4-((1-(3-fluoropropyl)azetidin-3-ylidene)methyl)phenyl)-6,7-dihydro-5H-benzo[7]annulene-3-carboxylic acid], the “% Degradation At 0.3 μM” value came out at 95% and the DC50 was 0.3 nM.
As for `Cc1cccc(C2=C(c3ccc(C=C4CN(CCC(F)(F)F)C4)cc3)c3ccc(C(=O)O)cc3CCC2)c1C(F)(F)F` [Example 110, 8-(3-methyl-2-(trifluoromethyl)phenyl)-9-(4-((1-(3,3,3-trifluoropropyl)azetidin-3-ylidene)methyl)phenyl)-6,7-dihydro-5H-benzo[7]annulene-3-carboxylic acid], the “% Degradation At 0.3 μM” value worked out at 93% and the DC50 came out at 2.9 nM.
With `Cc1ccc(C2=C(c3ccc(C=C4CN(CCCF)C4)cc3)c3ccc(C(=O)O)cc3CCC2)c(Cl)c1` [Example 41, 8-(2-chloro-4-methylphenyl)-9-(4-((1-(3-fluoropropyl)azetidin-3-ylidene)methyl)phenyl)-6,7-dihydro-5H-benzo[7]annulene-3-carboxylic acid], the “% Degradation At 0.3 μM” value was determined as 92% and the DC50 came to 0.2 nM.
Regarding `Cc1cc(F)ccc1C1=C(c2ccc(C=C3CN(CCCF)C3)c(F)c2C)c2ccc(C(=O)O)cc2CCC1` [Example 30, 8-(4-fluoro-2-methylphenyl)-9-(3-fluoro-4-((1-(3-fluoropropyl)azetidin-3-ylidene)methyl)-2-methylphenyl)-6,7-dihydro-5H-benzo[7]annulene-3-carboxylic acid], the “% Degradation At 0.3 μM” value is listed as 91% and the DC50 is 1.8 nM.
On to `CC(C)CC1=C(c2ccc(C=C3CN(CCCF)C3)cc2)c2ccc(C(=O)O)cc2CCC1` [Example 100, 9-(4-((1-(3-Fluoropropyl)azetidin-3-ylidene)methyl)phenyl)-8-isobutyl-6,7-dihydro-5H-benzo[7]annulene-3-carboxylic acid], for which the “% Degradation At 0.3 μM” value is 94% and the DC50 amounted to 0.3 nM.
As to `O=C(O)c1ccc2c(c1)CCCC(C1CCOCC1)=C2c1ccc(C=C2CN(CCCF)C2)cc1` [Example 60, 9-(4-((1-(3-Fluoropropyl)azetidin-3-ylidene)methyl)phenyl)-8-(tetrahydro-2H-pyran-4-yl)-6,7-dihydro-5H-benzo[7]annulene-3-carboxylic acid], the “% Degradation At 0.3 μM” value is 91% and the DC50 amounted to 2.3 nM.
